Each structure is given as a SMILES string.

Human immunodeficiency virus type 1 integrase, sequence (Q7ZJM1 whole entry): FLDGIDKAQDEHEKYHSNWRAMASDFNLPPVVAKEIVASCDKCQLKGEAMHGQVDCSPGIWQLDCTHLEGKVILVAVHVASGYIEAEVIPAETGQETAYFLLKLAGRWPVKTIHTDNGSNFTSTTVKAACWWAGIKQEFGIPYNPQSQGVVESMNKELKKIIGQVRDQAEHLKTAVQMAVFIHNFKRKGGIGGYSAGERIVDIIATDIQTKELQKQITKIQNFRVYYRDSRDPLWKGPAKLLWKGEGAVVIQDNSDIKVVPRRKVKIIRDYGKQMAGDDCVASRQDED

This test concerns the target Human immunodeficiency virus type 1 integrase (Human immunodeficiency virus 1, UniProt Q7ZJM1). In words: Inhibition of HIV-1 integrase.
For `O=C(O)Cn1cc(C(=O)O)c(=O)c2cc(Cc3cccc(Cl)c3Cl)ccc21`, the IC50 (usually the midpoint of a concentration-inhibition curve) was 0.0316 µM.

For the compound `O=C(O)c1c[nH]c2ccc(Cc3cccc(Cl)c3Cl)cc2c1=O`, the IC50 is 0.0692 µM.

`COc1cc2c(cc1Cc1cccc(Cl)c1F)c(=O)c(C(=O)O)cn2CCO` showed an IC50 of 0.00891 µM.

The values are drawn from ChEMBL document CHEMBL1208673, “CoMFA and CoMSIA 3D-QSAR studies on quionolone caroxylic acid derivatives inhibitors of HIV-1 integrase” (Eur J Med Chem, 2010).
